Earlier results as cited in article PMC4306510 (Bioconjugate Chemistry, 2014).

Details: in 0.1 M aqueous NaOH

quantum yield of the standard: 95%
Compound: O=C(O)c1ccc2c(c1)C(=O)OC21c2ccc(O)cc2Oc2cc(O)ccc21 [5-carboxy fluorescein]
